Data set [1] has as its system circulating platelets. The settings on record: mouse, in vivo.
Data set [2] concerns circulating platelets. The data set can be described thus: Number of circulating platelets in mice after single intraperitoneal injection. The settings on record: for Time after injection at which thrombocytopenia was maximal: following injection of the compounds.
A further data set addresses Bcl-xL (Homo sapiens, UniProt Q07817). In words: TR-FRET Bcl-xL binding assay (competition with probe F-Bak). The essentials: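 Compounds were serially diluted from 50 μM (2× starting concentration, 10% DMSO) and mixed with Bcl-xL, F-Bak probe and Tb-labeled anti-His antibody, then incubated 2 h at room temperature. TR-FRET was read at 340 nm excitation and 520/495 nm emission. Ki came from Wang's equation; tested without and with 1% human serum.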

The subject of data set [3] is Molt-4 human acute lymphoblastic leukemia cells. The data set can be described thus: Molt-4 cell viability assay. In kind it is cell-based. The settings on record: 10% human serum, 48 hours, CellTiter-Glo, read-out: Molt-4 Viability EC50 (nM, 10% HS). Background: ATP-based viability assays read luminescence as a measure of living cells.
[4] abbreviates: in the presence of 1% human serum (HS), read-out: Bcl-xL Binding Ki (nM, 1% HS).
[5] abbreviates: without human serum, read-out: Bcl-xL Binding Ki.

Read-outs that look alike come from different tables or passages of the source.

Sequence of Bcl-xL (Q07817 whole entry): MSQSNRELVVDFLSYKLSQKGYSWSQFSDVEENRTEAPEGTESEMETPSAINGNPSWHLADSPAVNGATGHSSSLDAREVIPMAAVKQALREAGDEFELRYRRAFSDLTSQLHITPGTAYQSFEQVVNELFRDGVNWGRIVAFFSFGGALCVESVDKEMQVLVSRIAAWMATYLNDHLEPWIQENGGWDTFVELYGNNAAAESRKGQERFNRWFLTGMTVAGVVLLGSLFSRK

For the compound `CC1(C)CCC(c2ccc(Cl)cc2)=C(CN2CCN(c3ccc(C(=O)NS(=O)(=O)c4ccc(N[C@H](CCN5CCOCC5)CSc5ccccc5)c(S(=O)(=O)C(F)(F)F)c4)cc3)CC2)C1` [ABT-263, Navitoclax], the “Time after injection at which thrombocytopenia was maximal” value (“Time after injection” below) with circulating platelets [1] was 6 h. Besides, in the data set with circulating platelets [1] (100 mg/kg), the “Time to lowest count” value was determined as 6 h.
Consider `Cc1c(-c2ccc(N3CCc4cccc(C(=O)Nc5nc6ccccc6s5)c4C3)nc2C(=O)O)cnn1CC12CC3CC(CC(C3)C1)C2` [Compound A-1331852], for which the “Time to lowest count” value in the data set with circulating platelets [2] (dose 25 mg/kg) is 6 h. Also, the “Time after injection” value in the data set on circulating platelets [2] came to 6 h.
As for `CNCCOC12CC3(C)CC(C)(CC(Cn4ncc(-c5ccc(N6CCc7cccc(C(=O)Nc8nc9ccccc9s8)c7C6)nc5C(=O)O)c4C)(C3)C1)C2` [Example 2.32.24, 6-[8-(1,3-benzothiazol-2-ylcarbamoyl)-3,4-dihydroisoquinolin-2(1H)-yl]-3-[1-({3,5-dimethyl-7-[2-(methylamino)ethoxy]tricyclo[3.3.1.1^3,7]dec-1-yl}methyl)-5-methyl-1H-pyrazol-4-yl]pyridine-2-carboxylic acid], in the data set with circulating platelets [2] (dose 0.61 mg/kg), the “Platelet number after dosing” value is on record as 6*10^3 /mm^3 and the “Time to lowest count” value amounted to 6 h. Besides, the “Decrease of the platelet number” value with circulating platelets [2] (dose 0.61 mg/kg, from normal count of approximately 6*10^5/mm^3) was determined as 100 fold. In addition, the “Time after injection” value in the data set on circulating platelets [2] was 6 h.
In general, Ki refers to a measure of affinity in units of concentration, obtained from inhibition or displacement. The term EC50 denotes the concentration needed to bring the measured effect to its halfway point. Regarding `CNCCOC12CC3(C)CC(C)(CC(Cn4ncc(-c5ccc(N6CCc7c(N)ccc(C(=O)Nc8nc9ccccc9s8)c7C6)nc5C(=O)O)c4C)(C3)C1)C2` [Compound W3.24, 6-[5-amino-8-(1,3-benzothiazol-2-ylcarbamoyl)-3,4-dihydroisoquinolin-2(1H)-yl]-3-[1-({3,5-dimethyl-7-[2-(methylamino)ethoxy]tricyclo[3.3.1.1^3,7]dec-1-yl}methyl)-5-methyl-1H-pyrazol-4-yl]pyridine-2-carboxylic acid], the results for the inhibition constant Ki at Bcl-xL (setting [4]) and at Bcl-xL (setting [5]) were 8.14 nM and 0.794 nM, respectively. In data set [3], the concentration for a half-maximal effect (EC50) was 2210 nM.
As to `CNC(=O)CCNCCOC12CC3(C)CC(C)(CC(Cn4ncc(-c5ccc(N6CCc7cccc(C(=O)Nc8nc9ccccc9s8)c7C6)nc5C(=O)O)c4C)(C3)C1)C2` [Compound W3.39, 6-[8-(1,3-benzothiazol-2-ylcarbamoyl)-3,4-dihydroisoquinolin-2(1H)-yl]-3-(1-{[3,5-dimethyl-7-(2-{[3-(methylamino)-3-oxopropyl]amino}ethoxy)tricyclo[3.3.1.1^3,7]dec-1-yl]methyl}-5-methyl-1H-pyrazol-4-yl)pyridine-2-carboxylic acid], the Ki was found to be 0.44 nM on Bcl-xL (setting [4]) and 0.015 nM on Bcl-xL (setting [5]). Further, the EC50 in data set [3] worked out at 37.7 nM.
The corresponding values for `CNCCOC12CC3(C)CC(C)(CC(Cn4ncc(-c5ccc(-c6ccc7[nH]cc(C(=O)Nc8nc9ccccc9s8)c7c6)nc5C(=O)O)c4C)(C3)C1)C2` [Compound W3.34, 6-[3-(1,3-benzothiazol-2-ylcarbamoyl)-1H-indol-5-yl]-3-[1-({3,5-dimethyl-7-[2-(methylamino)ethoxy]tricyclo[3.3.1.1^3,7]dec-1-yl}methyl)-5-methyl-1H-pyrazol-4-yl]pyridine-2-carboxylic acid] are 0.27 nM, 0.041 nM and 187 nM.

Values taken from US20160158377A1, “BCL-XL Inhibitory Compounds and Antibody Drug Conjugates Including the Same” (AbbVie Inc., priority 2014, published 2016).
